Results: patent publication US6713051B2, “Antiperspirant or deodorant compositions” (Unilever Home & Personal Care USA division of Conopco, Inc., priority 2001, dated 2004)

Biological target: T1, human PPARα (Homo sapiens, UniProt Q07869)
T1 construct: The coding region of a human PPARα cDNA was inserted downstream of the CMV promoter; expressed in transfected cells; host or cells: Cos-7 cells, transient transfection (pcDNA3.1(−)-PPARα, pRSV-RXRα, 3xPPRE-TK-luc reporter, pRL-TK)
T1 sequence (Q07869 1-468): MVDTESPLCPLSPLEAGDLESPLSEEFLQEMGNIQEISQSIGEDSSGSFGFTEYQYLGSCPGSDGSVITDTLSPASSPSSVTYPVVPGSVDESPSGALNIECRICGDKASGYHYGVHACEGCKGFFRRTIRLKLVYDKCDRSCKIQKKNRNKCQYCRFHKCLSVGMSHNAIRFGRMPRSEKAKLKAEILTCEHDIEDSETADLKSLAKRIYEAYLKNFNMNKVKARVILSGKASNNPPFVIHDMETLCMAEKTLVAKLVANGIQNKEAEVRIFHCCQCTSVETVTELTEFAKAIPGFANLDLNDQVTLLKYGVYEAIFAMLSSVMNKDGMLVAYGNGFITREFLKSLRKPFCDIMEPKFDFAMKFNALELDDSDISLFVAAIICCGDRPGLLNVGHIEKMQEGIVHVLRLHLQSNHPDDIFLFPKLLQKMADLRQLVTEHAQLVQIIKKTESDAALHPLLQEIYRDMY
T1 sequence (P19793 1-462 partner): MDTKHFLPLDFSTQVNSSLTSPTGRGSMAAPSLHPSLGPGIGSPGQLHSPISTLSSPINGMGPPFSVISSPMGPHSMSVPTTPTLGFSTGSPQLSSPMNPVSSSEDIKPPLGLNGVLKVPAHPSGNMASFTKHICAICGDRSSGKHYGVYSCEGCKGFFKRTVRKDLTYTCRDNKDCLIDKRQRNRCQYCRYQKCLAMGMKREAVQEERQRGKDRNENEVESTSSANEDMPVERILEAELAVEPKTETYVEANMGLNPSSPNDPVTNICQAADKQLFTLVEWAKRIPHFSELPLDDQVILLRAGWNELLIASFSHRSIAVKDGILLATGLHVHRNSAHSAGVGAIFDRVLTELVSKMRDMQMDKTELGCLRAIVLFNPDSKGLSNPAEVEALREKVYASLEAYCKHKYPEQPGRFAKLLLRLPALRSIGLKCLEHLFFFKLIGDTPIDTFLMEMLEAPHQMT
Test: PPARα reporter gene assay (firefly luciferase, transiently transfected Cos-7 cells)
Assay type: cell-based
Conditions: for Result (superior activity class achieved): class reached; for Pass at (lowest tested administration level at which the test material passed): pass = activation greater than oleic acid at 100 μM, commonly >1.57 times vehicle control, 24 h treatment
Text: One convenient reporter assay for determining whether a fatty acid material is PPARα activating is based upon the firefly luciferase gene.
Fatty acids were screened to identify PPAR activating fatty acids using a reporter assay.
This assay relied on ligands binding to and activating the PPARα protein, which, in turn, activated genes under the control of PPAR response elements (PPRE). In the assay, the firefly luciferase gene was cloned behind a promoter containing 3 copies of the fatty acid binding protein PPRE.
The assay was performed by transient transfection of Cos-7 cells with a mixture of four DNA plasmids. These were:
1) PPAR reporter gene construct (Modified pNF-KB-luc reporter vector (Firefly luciferase reporter vector commercially available form Clontech (NF-kB response element, TK minimal promoter, luc^+, f1 origin, pUC origin, amp^r)). A tandem repeat of 3 PPAR response elements (PPREs) corresponding to the PPRE found in the fatty acid binding protein promoter was inserted upstream of the minimal TK promoter to replace the NF-κB response element);
2) 2) Over-expressing PPARα construct (Modified pcDNA3.1(−) vector (A mammalian expression vector commercially available from Invitrogen (CMV promoter, f1 origin, SV40 origin, ColE1 origin, neo^r, amp^r)). The coding region of a human PPARα cDNA was inserted downstream of the CMV promoter of pcDNA3.1 (−)). […] The coding region of a human RXRα cDNA has been inserted downstream of the RSV promoter. (Gift of V. K. K. Chatterjee, Addenbrooke's Hospital, Cambridge)) 4) Control luciferase construct (pRL-TK Renilla luciferase reporter vector commercially available from Promega (HSV-TK promoter, T7 promoter, Rluc^+, ori, amp^r)). For the transfection, DNA was made up as a mix of PPAR reporter gene: PPARα: RXRα: control in the ratio 40:4:3:3.
Cos-7 cells were grown in Dulbecco's modified Eagle's Medium, also herein referred to as DMEM with 10% foetal calf serum, herein also referred to as FCS at 37° C., 5% CO2 to 80% confluency. Cells were then plated out in 24 well plates at 50,000 cells per well and incubated overnight in DMEM with 10% FCS at 37° C., 5% CO2. Cells were then transfected using the LipofectAMINE reagent (GibcoBRL). For each well 0.4 μg of DNA mix (in 25 μl of DMEM) was incubated with 1 μl LipofectAMINE (in 25 μl of DMEM) for 45 minutes. The mixture was then made up to 250 μl per well and added to the cells, which had been washed with 1 ml of DMEM. Cells were then incubated for 5 hours at 37° C., 5% CO2 and 250 μl DMEM with 10% SBCS (charcoal stripped bovine calf serum) added. Cells were incubated for 18 hours at 37° C., 5% CO2 before being treated with the appropriate compound/extract. Test compounds were made up as 1000× stocks (in DMSO or ethanol as appropriate) and diluted into DMEM with 10% SBCS (500 μl per well) immediately before being added to cells. Each treatment was performed in triplicate. The transfection mix was removed from the cells and replaced with the treatment mix, and incubated for 24 hours at 37° C., 5% CO2. Cells were washed with 1 ml of PBS (without calcium or magnesium) and then lysed with 100 μl per well of 1× Passive Lysis Buffer (as supplied with Promega Dual Luciferase assay kit). Lysis was allowed to continue for 15 minutes and then the lysate was assayed for Firefly and Renilla luciferase activity using the Promega Dual Luciferase assay kit. For the assay, 20 μl of lysate was taken and assayed as described in the kit instructions using a MLX microtiter™ plate luminometer (Dynex).
Firefly luciferase activity (PPAR driven) was normalised against the Renilla luciferase value for that well and the mean calculated for the three wells treated with the same agent. Activity was then expressed as fold activation over the vehicle (DMSO or ethanol) control values for that particular plate.

Structure (SMILES) | Result at (lowest administration level at which super or MS activity was achieved) [μm] | Pass at (lowest tested administration level at which the test material passed) [μm] | Result (superior activity class achieved)
CCCCCCC(O)CCCCCCCCCCC(=O)O (stereo not shown) [12-hydroxystearic acid] | 25 | 10 | MS (more superior activity [MS] (100% higher—at least 3 times PPARα activation))
CCCCCC[C@@H](O)C/C=C\CCCCCCCC(=O)O [Ricinoleic acid, ricinoleic acid] | – | 10 | –
CCCCCCCC/C=C/CCCCCCCC(=O)O [Elaidic acid] | – | 100 | –
CC/C=C\C/C=C\C/C=C\C/C=C\CCCCC(=O)O [Stearidonic/octadecatetraenoic acid, stearidonic acid] | 25 | 25 | super (superior activity [super] (50% higher—at least 2.25 times PPARα activation))
CCCC\C=C/C=C/C=C\CCCCCCCC(=O)O [Punicic acid, punicic acid] | – | 25 | –
Cc1cccc(Nc2cc(Cl)nc(SCC(=O)O)n2)c1C [WY14,643, reference compound] | 100 | 10 | super (superior activity [super] (50% higher—at least 2.25 times PPARα activation))
CCC=CCC=CCC=CCC=CCC=CC/C=C\CCC(=O)O [cis-4,7,10,13,16,19 docosahexenoic acid] | – | 10 | –
CCCCC/C=C\C/C=C\CC/C=C/CCCC(=O)O [Columbinic acid, columbinic acid] | 25 | 10 | super (superior activity [super] (50% higher—at least 2.25 times PPARα activation))
CCCCCC=CCC=CCC=CC/C=C\CCCCCC(=O)O [cis-7,10,13,16 docosatetraenoic acid] | 100 | 100 | super (superior activity [super] (50% higher—at least 2.25 times PPARα activation))
CC/C=C/C/C=C/C/C=C/CCCCCCCC(=O)O [Linolenelaidic acid, linolenelaidic acid] | 25 | 25 | super (superior activity [super] (50% higher—at least 2.25 times PPARα activation))
CCCCCC=CCC=CC/C=C\CCCCCCC(=O)O [cis-8,11,14 eicosatrienoic acid] | 100 | 100 | super (superior activity [super] (50% higher—at least 2.25 times PPARα activation))
CCCCCCCCC#CCCCCCCCC(=O)O [Stearolic acid] | – | 10 | –
CCCCC/C=C\C/C=C\C/C=C\C/C=C\CCCC(=O)O [Arachidonic acid] | – | 25 | –
CCCCCC/C=C/C=C/CCCCCCCC(=O)O [CLA (t9, t11)] | 100 | 50 | MS (more superior activity [MS] (100% higher—at least 3 times PPARα activation))
CCCCC/C=C/C/C=C/CCCCCCCC(=O)O [Linolelaidic acid] | – | 25 | –
CCCCC/C=C\C/C=C\CCCCCCCC(=O)O [Linoleic acid] | 100 | 10 | super (superior activity [super] (50% higher—at least 2.25 times PPARα activation))

Further lines, with some results ahead:

Result at (lowest administration level at which super or MS activity was achieved) [μm] | Pass at (lowest tested administration level at which the test material passed) [μm] | Structure (SMILES) | Result (superior activity class achieved)
– | 10 | CCCCCC=CC/C=C\CCCCCCCCCCCC(=O)O [cis 13,16 docosadienoic acid] | –
10 | 10 | CCCCCCCCCC/C=C/CCCCCC(=O)O [Trans-7-octadecenoic acid] | MS (more superior activity [MS] (100% higher—at least 3 times PPARα activation))
– | 100 | CCCCCCCC/C=C\CCCCCCCCCC(=O)O [cis-11 eicosenoic acid] | –
100 | 10 | CCCCCCCCCCCCCC/C=C\CCCC(=O)O [cis-5 eicosenoic acid] | MS (more superior activity [MS] (100% higher—at least 3 times PPARα activation))
– | 100 | CCC=CCC=CC/C=C\CCCCCCCCCCCC(=O)O [cis-13,16,19 docosatrienoic acid] | –
– | 50 | CCCCCC/C=C\CCCCCCCC(=O)O [Palmitoleic acid] | –
– | 100 | CC/C=C\CCCCCCCCCCCCCC(=O)O [cis-15-octadecanoic acid] | –
100 | 100 | CCC=CCC=CC/C=C\CCCCCCCCCC(=O)O [cis-11,14,17 eicosatrienoic acid] | MS (more superior activity [MS] (100% higher—at least 3 times PPARα activation))
– | 50 | CCCC/C=C\CCCCCCCCCCCC(=O)O [cis-13-octadecenoic acid] | –
100 | 10 | CCCCCC=CC/C=C\CCCCCCCCCC(=O)O [cis-11,14-eicosadienoic acid] | MS (more superior activity [MS] (100% higher—at least 3 times PPARα activation))
